Data on 12 sequences can be found in patent US11618770B2, “MUC1-derived peptide, and pharmaceutical composition for treatment or prevention of cancer, immunity-inducing agent and method for manufacturing antigen presenting cell using same” (NEC CORPORATION, priority 2015, dated 2023).

pKd: −log10 of the molar value. Ends that are not written are not given here.

In one experiment the target is T1, HLA-A*02:01 molecule (Homo sapiens, UniProt P04439, D140Y/D185E/D98H/E176V/E277Q/G131W/G231S/I119V/I121R/I166T/I218V/L300P/L318F/N151K/N90K/P208A/P217A/Q86G/Q94H/R138H/R169H/T345S).
T1 construct: a cell line T2 (purchased from ATCC) expressing the HLA-A*02:01 molecule; host or cells: T2 cells
In words: Experiment of binding peptide to HLA-A*02:01 molecule (T2 cells, antibody BB7.2, flow cytometer). The settings on record: for pKd: given as negative numbers (log of Kd value), T2 cells, 37° C. 4 hours. As to the method:
Experiment of Binding Peptide to HLA-A*02:01 Molecule
The ability of each of the peptides to bind to an HLA-A*02:01 molecule, which is an HLA-A*02:01 gene product, was measured using a cell line T2 (purchased from ATCC) expressing the HLA-A*02:01 molecule.
The T2 cells and purified β2m were added to a series of serial dilutions of the peptide whose binding ability would be measured, and then incubation was carried out at 37° C. for 4 hours. The HLA-A*02:01 molecule that had increased in an expression amount in a peptide-concentration-dependent manner up to this point was stained using a fluorescently labeled monoclonal antibody BB7.2, which is specific to an association type.
(§1) Thereafter, the amount of fluorescence per cell was measured using a flow cytometer, and a dissociation constant Kd value was calculated using a method that was reported in a paper (Udaka et al., Immunogenetics, 51, 816-828, 2000) by the inventors of the present invention.
(In general: In flow cytometry, cells or beads pass a laser one at a time.)

In a further experiment the target is T2, HLA-A*02:06 molecule (Homo sapiens, UniProt P04439, D140Y/D185E/D98H/E176V/E277Q/F33Y/G131W/G231S/I119V/I121R/I166T/I218V/L300P/L318F/N151K/N90K/P208A/P217A/Q86G/Q94H/R138H/R169H/T345S).
T2 construct: expressed in transfected cells; host or cells: RA2.6 cells (mouse TAP-deficient RMAS cells carrying HLA-A*02:06 cDNA)
As to the kind of experiment: Experiment of binding peptide to HLA-A*02:06 molecule (RA2.6 cells, antibody BB7.2, flow cytometer). The settings on record: for pKd: given as negative numbers (log of Kd value), RA2.6 cells. As to the method:
Experiment of Binding Peptide to HLA-A*02:06 Molecule
The ability of each of the peptides to bind to an HLA-A*02:06 molecule, which is an HLA-A*02:06 gene product, was measured using RA2.6 cells (cell line that had been newly produced in Kochi University) produced by introducing the cDNA of the HLA-A*02:06 gene into a mouse TAP (transporter associated with antigen processing)-deficient cell line RMAS.
First, RA2.6 cells were cultured at 26° C. overnight.
Thereafter, the cells were cultured at 35° C. for 4 hours. […] A fluorescently labeled monoclonal antibody BB7.2, which specifically recognizes a peptide-binding HLA-A*02:06 molecule, was added thereto, incubation was carried out on ice for 20 minutes, and thus the cells were stained.
as §1

A further experiment deals with HLA-A*24:02 molecule (Homo sapiens, UniProt P04439, D101N/D140Y/D185E/E176V/E190D/F33S/G103R/G107R/I119L/I121M/I306V/K335N/L105A/L180Q/L300P/N151K/N90K/Q86E/Q94H/R106L/R138H/R89G/T104I/T345S/V100E/W191G/Y123F). In words: Experiment of binding peptide to HLA-A*24:02 molecule (C1R-A24 cells, antibody 17A12, FACS). The following applies: for pKd: given as negative numbers (log of Kd value), C1R-A24 cells, on ice 4 hours. As to the method:
Experiment of Binding Peptide to HLA-A*24:02 Molecule
The ability of each of the peptides to bind to an HLA-A*24:02 molecule, which is an HLA-A*24:02 gene product, was measured using C1R-A24 cells expressing the HLA-A*24:02 molecule (cells prepared by Professor Masafumi TAKIGUCHI, Kumamoto University being supplied with permission by Assistant Professor Masaki YASUKAWA, Ehime University).
First, C1R-A24 cells were exposed to acidic conditions at a pH of 3.3 for 30 seconds, and thus an endogenous peptide that originally binds to the HLA-A*24:02 molecule, and a light chain β2m, which is associated with HLA class-I molecules in common, were dissociated and removed. After neutralization, a purified β2m was added to C1R-A24 cells, and the obtained product was added to a series of dilutions of the peptide and incubated on ice for 4 hours. Staining was carried out using a fluorescently labeled monoclonal antibody 17A12, which recognizes association (MHC-pep) of the three members, that is, a HLA-A*24:02 molecule, a peptide, and β2m, which had reassociated during the incubation.
Thereafter, the MHC-pep count per C1R-A24 cell (proportional to the intensity of fluorescence of the above-mentioned fluorescent antibody) was quantitatively measured using a fluorescence-activated cell sorter FACScan (Becton-Dickinson). A binding-dissociation constant Kd value between the HLA-A*24:02 molecule and the peptide was calculated from the average intensity of fluorescence per cell using a method that was reported in a paper (Udaka et al., Immunogenetics, 51, 816-828, 2000) by the inventors of the present invention.

A further experiment has as its system CD8T cells. As to the kind of experiment: Peptide immunity induction testing (peptide-stimulated dendritic cells cocultured with CD8T cells, IFN-γ ELISA). The format is cell-based, human. As to the method: Peptide Immunity Induction Testing
Of the peripheral blood monocytes obtained through pheresis from a patient (0) that had undergone a dendritic cell/CTL therapy against MUC1, a cell fraction that adhered to a culture flask was cultured in an AIM-CM culture medium (manufactured by Gibco) at 37° C. for 10 days. During the culture, 15 μl of IL-4 and 30 μl of a granulocyte monocyte colony-stimulating factor (GM-CSF) added to the culture medium on Day 0 and Day 3, and 15 μl of IL-4, 30 μl of GM-CSF, and 75 μl of a tumor necrosis factor (TFN)-α were added thereto on Day 5.
Induced dendritic cells were collected in a new AIM-CM culture medium, and the peptide of the present invention (Sequence ID Nos. 1 to 12) was added thereto to a concentration of 20 μg/ml. […]
CD8T cells were isolated from the culture medium using a CD8 negative selection kit (manufactured by Miltenyi), and the number of cells was counted. […]
The culture supernatant of the coculture of the T cells and the dendritic cells pulsed with the above-mentioned peptides on Day 7 was diluted to four steps, that is, ×1, ×5, ×25, and ×125, and the dilution step within a measurement limit was identified using Human IFN-γ ELISA MAX Deluxe Set (manufactured by BioLegend). Thereafter, at the identified dilution step, each sample was measured three times. […]

By pKd is commonly meant −log10 of the Kd, conventionally taken in molar units. Consider LQRDISEMF [Seq. ID No. 6, LQRDISEMF], for which the pKd at HLA-A*02:01 molecule is less than 3.00; at HLA-A*02:06 molecule, 4.26; on HLA-A*24:02 molecule, 6.65.
In the same order, the values of AASRYNLTI [Seq. ID No. 5, AASRYNLTI] are 4.81, 3.82 and 6.15.
In the same order, the values of FLGLSNIKF [Seq. ID No. 1, FLGLSNIKF] are 5.39, 4.39 and 7.07.
Taken in the same sequence, the figures for FSAQSGAGV [Seq. ID No. 12, FSAQSGAGV] were 4.74, 5.66 and less than 3.00.
As for TLAFREGTI [Seq. ID No. 9, TLAFREGTI], the pKd at HLA-A*02:01 molecule was less than 3.00; at HLA-A*02:06 molecule it was 3.09; on HLA-A*24:02 molecule, 5.97.
In the same order, the values of AFREGTINV [Seq. ID No. 4, AFREGTINV] are less than 3.00, less than 3.00 and 5.83.
For the sequence STGVSFFFL [Seq. ID No. 10, STGVSFFFL], on HLA-A*02:01 molecule, the “Binding to HLA-A*02:01 molecule (in words)” value is on record as “strongly binds” and the pKd was 5.12. Moreover, on HLA-A*02:06 molecule, the “Binding to HLA-A*02:06 molecule (in words)” value is on record as “strongly binds” and the pKd is 5.21. Besides, the “Immunogenicity (in words)” value in the experiment with CD8T cells is reported as “high immunogenicity”. Further, at HLA-A*24:02 molecule, the “Binding to HLA-A*24:02 molecule (in words)” value was “strongly binds” and the negative logarithm of the Kd (pKd) was 5.17.
For the sequence SFFFLSFHI [Seq. ID No. 8, SFFFLSFHI], the negative-log Kd (pKd) was less than 4.00 at HLA-A*02:01 molecule, 3.98 at HLA-A*02:06 molecule and 7.07 on HLA-A*24:02 molecule.
Taken in the same sequence, the figures for SVPVTRPAL [Seq. ID No. 2, SVPVTRPAL] were 3.90, 5.63 and 7.24.
Taken in the same sequence, the figures for GVPGWGIAL [Seq. ID No. 3, GVPGWGIAL] were 4.55, 5.76 and 5.93.
In the same order, the values of GQDVTSVPV [Seq. ID No. 11, GQDVTSVPV] are 6.44, 6.35 and less than 3.00.
Turning to HHSDTPTTL [Seq. ID No. 7, HHSDTPTTL], the pKd at HLA-A*02:01 molecule is less than 3.00; on HLA-A*02:06 molecule, less than 3.00; at HLA-A*24:02 molecule, 5.87.
